Data as given in PubChem BioAssay (NCI).
Several values for one entry are separate records, joined by “and”; a condition that tells them apart may be missing. Equal entries are not always repeated.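 Growth conditions: 96-well plates. Treatment: test compound, 48 hours, 5 concentrations. Analysis: linear interpolation between bracketing concentrations; unreached endpoints set to highest concentration. Here, GI50 denotes the concentration required for 50% inhibition of growth. TGI: total growth inhibition.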

Assays:
Experiment in all cases: NCI tumour cell line growth inhibition, 48 h
A549 NSCLC = system: A549 NSCLC
EKVX NSCLC = system: EKVX NSCLC
HT29 colon = system: HT29 colon
M14 melanoma = system: M14 melanoma
NCI-H226 lung = system: NCI-H226 lung
NCI-H23 lung = system: NCI-H23 lung
OVCAR-4 ovarian = system: OVCAR-4 ovarian
SNB-19 CNS = system: SNB-19 CNS
SR leukemia = system: SR leukemia

SMILES	TGI (A549 NSCLC)	TGI (EKVX NSCLC)	TGI (HT29 colon)	TGI (M14 melanoma)	TGI (NCI-H226 lung)	TGI (NCI-H23 lung)	TGI (OVCAR-4 ovarian)	TGI (SNB-19 CNS)	TGI (SR leukemia)	GI50 (EKVX NSCLC)	GI50 (M14 melanoma)	GI50 (NCI-H23 lung)	GI50 (OVCAR-4 ovarian)	GI50 (SR leukemia)	GI50 (A549 NSCLC)	GI50 (SNB-19 CNS)
COc1ccc2c(c1)c1nn(CCN3CCCCC3)c3ccc4c(=O)n(CCN(C)C)c(=O)n2c4c13	0.0497 µM	0.0406 µM	0.0963 µM	0.109 µM	0.243 µM	0.627 µM	0.0158 µM	0.532 µM								
O=C(c1ccc(O)c([N+](=O)[O-])c1)c1ccc(O)c([N+](=O)[O-])c1	> 100 µM	> 100 µM	> 100 µM	> 100 µM	> 100 µM	> 100 µM	> 100 µM	> 100 µM								
COc1cc(OC2OC(COC(=O)c3cc(O)c(O)c(O)c3)C(O)C(O)C2O)ccc1O (stereo not drawn)	> 100 µM	> 100 µM	> 100 µM	> 100 µM	> 100 µM	> 100 µM	> 100 µM	> 100 µM	> 100 µM							
CC(=O)N(C(C)=O)n1c(Cc2ccc(C)cc2)nn(C(C)=O)c1=O	> 100 µM	> 100 µM	> 100 µM	> 100 µM	> 100 µM	> 100 µM	> 100 µM	> 100 µM	> 100 µM							
CCOC(=O)C(NC(=O)CC)(Nc1ccc(F)c(Cl)c1)C(F)(F)F (stereo not drawn)	> 100 µM	> 100 µM	> 100 µM	> 100 µM	> 100 µM		> 100 µM	> 100 µM	> 100 µM							
O=C1CS[C@@](CC(c2ccc(Cl)cc2)c2ccc(Cl)cc2)(c2ccc(Cl)cc2)N1	> 100 µM	> 100 µM	> 100 µM	> 100 µM	42.2 µM	> 100 µM	> 100 µM	> 100 µM	26.3 µM							
CCOc1ccc(/C=C2\NC(=S)N(/C=C3\C(=O)Oc4ccccc4C3=O)C2=O)cc1		70 µM	82.1 µM	92.4 µM	45.7 µM	80.8 µM	66.5 µM	59.8 µM								
Cc1c2ccccc2c(C)n2c1nc1ccccc12	23.2 µM	54.9 µM	69 µM	24.1 µM	37.8 µM	30.7 µM		68.3 µM	> 100 µM							
COc1ccc(N=C2C(=Nc3ccc(OC)cc3)N(c3ccc(N(C)C)cc3)C(=S)N2c2ccc(OC)cc2)cc1	> 100 µM	> 100 µM	> 100 µM	> 100 µM	> 100 µM	> 100 µM	> 100 µM	> 100 µM	> 100 µM							
CCCC(=O)NC(Nc1ccc(F)cc1)(C(F)(F)F)C(F)(F)F	> 100 µM	> 100 µM	> 100 µM	> 100 µM	> 100 µM	> 100 µM	> 74.2 µM	> 100 µM	> 100 µM							
O=C1/C(=C/c2ccccc2)NC(=S)N1CN1CCCCC1	> 100 µM	> 100 µM	> 100 µM	> 100 µM	> 100 µM	> 100 µM	92.6 µM	> 100 µM	> 100 µM							
CCCN(CCC)C1CCc2c(ccc3cc[nH]c23)C1 (stereo not drawn)	> 100 µM	> 100 µM	> 100 µM	32.4 µM	> 100 µM	> 100 µM	> 100 µM	> 100 µM	73.3 µM							
CNC(=S)NNc1ncnc2c1ncn2-c1ccc(C)cc1	> 100 µM	> 100 µM	> 100 µM	> 100 µM	> 100 µM	> 100 µM	> 100 µM	> 100 µM	> 100 µM							
COc1c2ccsc2c(OC)c2ccsc12	> 100 µM	> 100 µM	> 100 µM	> 100 µM	> 100 µM	> 100 µM	> 100 µM	> 100 µM	> 100 µM							
Cc1ccc(S(=O)(=O)N/N=C2/CCC(C(C)(C)C)CC2Br)cc1 (stereo not drawn)	> 100 µM	> 100 µM	88.9 µM	35.4 µM	34 µM	> 100 µM	33.6 µM	> 100 µM	> 100 µM							
Clc1ccc(C2CC(c3cccc(Nc4ccncc4)c3)=NN2c2cc(Cl)cc(Cl)c2)cc1 (stereo not drawn)		3.12 µM		3.9 µM		3.34 µM	3.39 µM		4.65 µM	1.6 µM	1.81 µM	1.71 µM	1.8 µM	1.86 µM		
CC(=O)NC1(C(=O)N[C@@H](Cc2ccccc2)C(=O)NC2CCCCC2)Cc2ccc3ccccc3c2-c2c(ccc3ccccc23)C1	> 100 µM	> 100 µM	> 100 µM and 57.5 µM	29.6 µM and 44 µM			> 100 µM	> 100 µM	> 100 µM	4.45 µM and 18.4 µM	3.32 µM and 7.79 µM		1.17 µM and 6.26 µM		2.53 µM and 5.95 µM	11 µM and 28.8 µM
COC(=O)NC(Cc1ccccc1)NC(C)=O (stereo not drawn)	> 100 µM	> 100 µM	> 100 µM	> 100 µM		> 100 µM	> 100 µM	> 100 µM	> 100 µM							
N[C@H](CCC(=O)NCP(=O)(O)O)C(=O)O	> 100 µM	> 100 µM	> 100 µM			> 100 µM		> 100 µM	> 100 µM							
N#CC[N+]1(Cc2ccccn2)CCCC1	> 100 µM	> 100 µM	> 100 µM	> 100 µM	> 100 µM	> 100 µM	> 100 µM	> 100 µM								
Nc1ccc2ccc(-c3ccc[nH]3)nc2n1	> 100 µM	> 100 µM		> 100 µM	> 100 µM	> 100 µM	> 100 µM	> 100 µM								
COP(=O)(O)C(N)Cc1c[nH]c2ccccc12 (stereo not drawn)	> 100 µM		> 100 µM	> 100 µM	> 100 µM	> 100 µM	> 100 µM	> 100 µM	> 100 µM							
N=c1oc2ccccc2cc1-c1nc2ccccc2c(=O)[nH]1	> 100 µM	> 100 µM	> 100 µM	> 100 µM	> 100 µM		> 100 µM	> 100 µM	> 100 µM							
O=[N+]([O-])c1ccc(N2N=C(c3ccc4ccccc4c3O)CC2c2ccc(Cl)cc2)c([N+](=O)[O-])c1 (stereo not drawn)	> 100 µM		> 100 µM	> 100 µM	> 100 µM	> 100 µM	> 100 µM		40.6 µM							
